# According to patent US12655150B2 (Cedilla Therapeutics, Inc., priority 2021, dated 2026):
# System: NCI-H226
# Assay: 72H TEAD Proliferation Assay (Cell Titer Glo 2.0)
# Assay type: cell-based
# Conditions: Homo sapiens, CTG 2.0, cell line not given (NCI-H226 responsive, NCI-H28 non-responsive)
# Procedure, shortened: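 NF2-deficient NCI-H226 mesothelioma cells, TEAD-dependent, treated 72 h; NF2-wild-type NCI-H28 serves as the TEAD-independent counter-screen for off-target cytotoxicity. Viable cells quantified by CellTiter-Glo 2.0 luminescence; background and time-zero signal subtracted, GI50 from nonlinear dose-response fit.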
row,SMILES,GI50 [µM]
1,"O=C(/C=C/CF)NCc1nc(-c2ccc(C(F)(F)F)cc2)c2cccnc2n1 [I-308, (E)-4-fluoro-N-((4-(4-(trifluoromethyl)phenyl)pyrido[2,3-d]pyrimidin-2-yl)methyl)but-2-enamide]",≤ 1

# Same assay, conditions: Homo sapiens, NCI-H226, 72 h, CTG 2.0, cell line not given (NCI-H226 responsive, NCI-H28 non-responsive)
row,SMILES,GI50 [µM]
1,"CC(C)(C)c1ccc(-c2nc3cc(C(=O)O)ccc3n3cc(SC(F)(F)F)cc23)cc1 [I-411, 4-(4-(tert-Butyl)phenyl)-2-((trifluoromethyl)thio)pyrrolo[1,2-a]quinoxaline-7-carboxylic acid]",1 to 5
2,"CC(C)(C)c1ccc(-c2nc3cc(NC(=O)c4ccccn4)ccc3n3cccc23)cc1 [I-207, N-(4-(4-(tert-butyl)phenyl)pyrrolo[1,2-a]quinoxalin-7-yl)picolinamide]",5 to 10
3,"CC(C)(C)c1ccc(-c2cncc3cc(C(=O)O)ccc23)cc1 [I-95, 4-(4-(tert-Butyl)phenyl)isoquinoline-7-carboxylic acid]",> 10
4,"COc1cc(-c2ccc(C(F)(F)F)cc2)nc2cc(-c3nnc(C)[nH]3)ccc12 [I-413, 4-methoxy-7-(5-methyl-4H-1,2,4-triazol-3-yl)-2-(4-(trifluoromethyl)phenyl)quinolone]",5 to 10
5,"C=CC(=O)n1ccc2c(-c3ccc(C(C)(C)C)cc3)nccc21 [I-105, 1-(4-(4-(tert-Butyl)phenyl)-1H-pyrrolo[3,2-c]pyridin-1-yl)prop-2-en-1-one]",1 to 5
6,"CC[C@H](CO)NC(=O)c1ccc2nc(C)c(-c3ccc(C(F)(F)F)cc3)nc2c1 [I-423, (R)—N-(1-hydroxybutan-2-yl)-2-methyl-3-(4-(trifluoromethyl)phenyl)quinoxaline-6-carboxamide]",5 to 10
7,"CC(C)(C)c1ccc(-c2nc3cc(-c4nnc(N)o4)ccc3n3cccc23)cc1 [I-189, 5-(4-(4-(tert-butyl)phenyl)pyrrolo[1,2-a]quinoxalin-7-yl)-1,3,4-oxadiazol-2-amine]",5 to 10
8,"CC(C)(C)c1ccc(-c2nc3cc(C(=O)NCCOCCOCCN)ccc3n3cccc23)cc1 [I-385, N-(2-(2-(2-Aminoethoxy)ethoxy)ethyl)-4-(4-(tert-butyl)phenyl)pyrrolo[1,2-a]quinoxaline-7-carboxamide]",5 to 10
9,"O=C(O)c1ccc2c(c1)nc(N1CCOCC1)c1cccn12 [I-7, 4-Morpholinopyrrolo[1,2-a]quinoxaline-7-carboxylic acid]",> 10
10,"CNS(=O)(=O)c1ccc2c(c1)nc(-c1ccc(C(C)(C)C)cc1)c1cccn12 [I-310, 4-(4-(tert-butyl)phenyl)-N-methylpyrrolo[1,2-a]quinoxaline-7-sulfonamide]",1 to 5
11,"CC[C@H](CO)NC(=O)c1ccc2c(OC)cc(-c3c(Cl)cc(C(F)(F)F)cc3Cl)nc2c1 [I-398, (R)-2-(2,6-dichloro-4-(trifluoromethyl)phenyl)-N-(1-hydroxybutan-2-yl)-4-methoxyquinoline-7-carboxamide]",1 to 5
12,"COc1cc(-c2ccc(C(F)(F)F)cc2)nc2cc(C(=O)N[C@@H](C)c3cccc(C(=O)O)c3)ccc12 [I-347, (S)-3-(1-(4-methoxy-2-(4-(trifluoromethyl)phenyl)quinoline-7-carboxamido)ethyl)benzoic acid]",5 to 10
13,"CC(C)(C)c1ccc(-c2cnc3ccc(C(=O)O)cc3n2)cc1 [I-157, 3-(4-(tert-Butyl)phenyl)quinoxaline-6-carboxylic acid]",> 10
14,"CC(C)(C)c1ccc(-c2nc3cc(C(=O)O)cc(F)c3n3ccnc23)cc1 [I-72, 4-(4-(tert-Butyl)phenyl)-9-fluoroimidazo[1,2-a]quinoxaline-7-carboxylic acid]",5 to 10
15,"CC(C)C1CCN(c2nc3cc(C(=O)O)ccc3n3cccc23)CC1 [I-12, 4-(4-Isopropylpiperidin-1-yl)pyrrolo[1,2-a]quinoxaline-7-carboxylic acid]",1 to 5
16,"CC1CCN(c2nc3cc(C(=O)O)ccc3n3cccc23)CC1 [I-16, 4-(4-Methylpiperidin-1-yl)pyrrolo[1,2-a]quinoxaline-7-carboxylic acid]",1 to 5
17,"Cc1cc(-c2ccc(C(F)(F)F)cc2)nc2cc(C(=O)N[C@@H](C)COC(F)(F)F)ccc12 [I-264, (S)-4-methyl-N-(1-(trifluoromethoxy)propan-2-yl)-2-(4-(trifluoromethyl)phenyl)quinoline-7-carboxamide]",1 to 5
18,"CC(C)c1cc(-c2ccc(C(F)(F)F)cc2)nc2cc(C(=O)O)ccc12 [I-425, 4-isopropyl-2-(4-(trifluoromethyl)phenyl)quinoline-7-carboxylic acid]",1 to 5
19,"CC(C)(C)c1ccc(-c2nc3cc(C(=O)O)ccc3n3ccnc23)cc1 [I-58, 4-(4-(tert-Butyl)phenyl)imidazo[1,2-a]quinoxaline-7-carboxylic acid]",5 to 10
20,"CN(CCCC(F)(F)F)c1nc2cc(C(=O)O)ccc2n2cccc12 [I-125, 4-(Methyl(4,4,4-trifluorobutyl)amino)pyrrolo[1,2-a]quinoxaline-7-carboxylic acid]",> 10
21,"O=C(O)c1ccc2c(c1)nc(-c1ccc(C(F)(F)F)nc1)c1cccn12 [I-51, 4-(6-(Trifluoromethyl)pyridin-3-yl)pyrrolo[1,2-a]quinoxaline-7-carboxylic acid]",1 to 5
22,"Cc1cc(-c2ccc(C(F)(F)F)cc2)nc2cc(C(N)=O)ccc12 [I-258, 4-Methyl-2-(4-(trifluoromethyl)phenyl)quinoline-7-carboxamide]",1 to 5
23,"CC(CO)NC(=O)c1ccc2c(c1)nc(-c1ccc(C(C)(C)C)cc1)c1cccn12 (stereo not drawn) [I-186, 4-(4-(tert-butyl)phenyl)-N-(1-hydroxypropan-2-yl)pyrrolo[1,2-a]quinoxaline-7-carboxamide]",1 to 5
24,"COc1cc(-c2ccc(C(F)(F)F)cc2)nc2cc(NC(=O)[C@@H](CO)c3ccccc3)ccc12 [I-376, (R)-3-Hydroxy-N-(4-methoxy-2-(4-(trifluoromethyl)phenyl)quinolin-7-yl)-2-phenylpropanamide]",1 to 5
25,"COc1cc(-c2ccc(C(F)(F)F)cc2)nc2cc(C(=O)N[C@@H](C)c3ccccn3)ccc12 [I-327, (S)-4-methoxy-N-(1-(pyridin-2-yl)ethyl)-2-(4-(trifluoromethyl)phenyl)quinoline-7-carboxamide]",≤ 1
26,"CC(C)C12CC(Nc3nc4cc(C(=O)O)ccc4n4cccc34)(C1)C2 [I-22, 4-((3-Isopropylbicyclo[1.1.1]pentan-1-yl)amino)pyrrolo[1,2-a]quinoxaline-7-carboxylic acid]",1 to 5

# Continued, values first:
row,GI50 [µM],SMILES
1,≤ 1,"C=CC(=O)NCc1nc(-c2ccc(C(F)(F)F)cc2)c2ccn(C)c2n1 [I-292, N-((7-methyl-4-(4-(trifluoromethyl)phenyl)-7H-pyrrolo[2,3-d]pyrimidin-2-yl)methyl)acrylamide]"
2,≤ 1,"COc1cc(-c2ccc(C(F)(F)F)cc2)nc2cc(C(=O)O)ccc12 [I-181, 4-methoxy-2-(4-(trifluoromethyl)phenyl)quinoline-7-carboxylic acid]"
3,≤ 1,"C=CC(=O)NCc1cc2ccccc2c(-c2ccc(C(F)(F)F)cc2F)n1 [I-301, N-((1-(2-Fluoro-4-(trifluoromethyl)phenyl)isoquinolin-3-yl)methyl)acrylamide]"
4,≤ 1,"Cc1nc(-c2ccc(C(F)(F)F)cc2)nc2cc(C(=O)N[C@H](C)CO)ccc12 [I-436, (R)—N-(1-hydroxypropan-2-yl)-4-methyl-2-(4-(trifluoromethyl)phenyl)quinazoline-7-carboxamide]"
5,≤ 1,"O=C(O)c1ccc2c(c1)nc(N1CCC3(CC1)CC3(F)F)c1cccn12 [I-36, 4-(1,1-Difluoro-6-azaspiro[2.5]octan-6-yl)pyrrolo[1,2-a]quinoxaline-7-carboxylic acid]"
6,≤ 1,"Cc1cc2c(N3CCC(C(F)(F)F)CC3)nc3cc(C(=O)O)ccc3n2c1 [I-406, 2-Methyl-4-(4-(trifluoromethyl)piperidin-1-yl)pyrrolo[1,2-a]quinoxaline-7-carboxylic acid]"
7,≤ 1,"C=C(F)C(=O)NCc1cc2ccccc2c(-c2ccc(C(F)(F)F)cc2)n1 [I-168, 2-Fluoro-N-((1-(4-(trifluoromethyl)phenyl)isoquinolin-3-yl)methyl)acrylamide]"
8,≤ 1,"COC[C@H](C)NC(=O)c1ccc2c(C)cc(-c3ccc(C(F)(F)F)cc3)nc2c1 [I-263, (S)—N-(1-methoxypropan-2-yl)-4-methyl-2-(4-(trifluoromethyl)phenyl)quinoline-7-carboxamide]"
9,≤ 1,"COc1cc(-c2ccc(C(F)(F)F)cc2)nc2cc(C(=O)N[C@@H](CO)c3ccccn3)ccc12 [I-365, (R)—N-(2-hydroxy-1-(pyridin-2-yl)ethyl)-4-methoxy-2-(4-(trifluoromethyl)phenyl)quinoline-7-carboxamide]"
10,≤ 1,"Cc1cc(-c2ccc(C(F)(F)F)cc2)nc2cc(C(=O)O)ccc12 [I-89, 4-Methyl-2-(4-(trifluoromethyl)phenyl)quinoline-7-carboxylic acid]"
11,≤ 1,"CC[C@H](CO)NC(=O)c1ccc2c(OC)cc(-c3ccc(C(F)(F)F)cc3Cl)nc2c1 [I-341, (R)-2-(2-chloro-4-(trifluoromethyl)phenyl)-N-(1-hydroxybutan-2-yl)-4-methoxyquinoline-7-carboxamide]"
12,≤ 1,"CCOc1nc(-c2ccc(C(F)(F)F)cc2)nc2cc(C(=O)O)ccc12 [I-432, 4-ethoxy-2-(4-(trifluoromethyl)phenyl)quinazoline-7-carboxylic acid]"
13,≤ 1,"C=C(F)C(=O)NCc1cn2ccnc2c(-c2ccc(C(F)(F)F)cc2)n1 [I-178, 2-Fluoro-N-((8-(4-(trifluoromethyl)phenyl)imidazo[1,2-a]pyrazin-6-yl)methyl)acrylamide]"
14,≤ 1,"C=CC(=O)NCc1cn2ccnc2c(-c2ccc(C(F)(F)F)cc2)n1 [I-109, N-((8-(4-(trifluoromethyl)phenyl)imidazo[1,2-a]pyrazin-6-yl)methyl)acrylamide]"
15,≤ 1,"C=CC(=O)NCc1nc(-c2ccc(OC(F)(F)F)cc2)c2ccc(F)cc2n1 [I-447, N-((7-fluoro-4-(4-(trifluoromethoxy)phenyl)quinazolin-2-yl)methyl)acrylamide]"
